According to patent US20100298348A1, “Method of Decreasing Ubiquitylated Protein Levels” (priority 2009, published 2010):

Experiments:
Type in all cases: in vivo
tau = experiment: Western blot of tau species in 3xTg-AD mouse brain; details: 3xTg-AD mice ~12 months old, 5 mg/kg/day, 2 months, overexposed blot
Excerpt: The status of tau phosphorylation, accumulation and degradation can be assessed in Western blots. Two anti-tau antibodies, directed against non-phosphorylated and phosphorylated tau, were used to probe brain extracts from the initial experiment. FIG. 12 is a series of Western blots depicting levels of full-length tau, tau accumulates, tau degradation products and phosphorylated tau levels in brain extracts from ST101 treated 3×TG-AD mice (S) versus control mice (C). Beta actin levels (Ac) were used as a loading control. P-tau, two panels per antibody: top—normal exposure; bottom—overexposure to visualize minor protein bands. Ac: beta actin antibody as protein loading control. Animals were approximately 12 months old at sacrifice after 2 months of treatment with ST101 at 5 mg/kg/day.

BACE1 = experiment: Western blot of BACE in 3xTg-AD mouse brain; details: 3xTg-AD mice ~12 months old, 5 mg/kg/day, 2 months
Experimental: APP C-terminal fragments C99 and C83 are created by beta-secretase and alpha-secretase cleavage respectively. The reduction of both C99 and C83 induced by ST101 could therefore be due to reduction or inhibition of secretases. This hypothesis was tested using Western blots of brain extracts from 3xTg-AD mice from the initial experiment in 12-month-old animals treated with ST101 for 2 months. The only beta-secretase is BACE1 and the constitutive alpha-secretase is ADAM10.
Western blots were probed with antibodies against BACE1 and ADAM10. FIG. 11A is a series of Western blots depicting levels of proADAM10, ADAM10, proBACE, BACE, Presenilinl and APP-CFTs in brain extracts from ST101 treated 3×TG-AD mice (S) versus control mice (C). C: control brain extract. S: ST101-treated brain extract. Animals were approximately 12 months old at sacrifice after 2 months of treatment with ST101 at 5 mg/kg/day.

APP = experiment: Western blot of APP fragments in cynomolgus monkey hippocampus, 9-month study; details: male cynomolgus monkeys, 9 months oral
Experimental: (§1) Male cynomolgus monkeys were treated for 9 months with 0, 10, 30 or 100 mg/kg/day ST101 with once daily oral drug administration. Hippocampal brain samples were analyzed in Western blots and ELISAs for APP fragments and Aβ. […] Reductions in a ˜55-kDa fragment were also seen with treatment in these groups. Black outlines depict image level enhancement in Adobe Photoshop CS4, to better visualize weak signals. […] However, long exposures reveal the presence of the 17-kDa APP fragment only in treated monkeys (antibody CT20, Calbiochem). This fragment was not detected in either the 30 or 10 mg/kg/day ST101 groups. Error bars indicate SEM (standard error of the mean) and * indicates statistical significance versus control (p<0.05). (S: ST101-treated animals, versus C: control animals).

Aβ1-40 = experiment: Aβ in cynomolgus monkey brain after six-month chronic toxicity study; details: juvenile cynomolgus monkeys, 10 mg/kg/day by naso-gastric tube, 6 months
Experimental: Brain samples from cynomolgus monkeys were obtained at the conclusion of a six-month chronic toxicity study. The cynomolgus monkeys used in this study were juveniles of less than 4 years of age. ST101 was administered daily for 6 months by naso-gastric tube at 10 mg/kg/day (n=8 per group). Data was generated from 8 treated and 8 control animals. Levels of Aβ1-40 are shown in FIG. 9, which is a bar graph that depicts the effect of ST 101 on Aβ in brain tissue from cynomolgus monkeys. FIG. 9 depicts the amount of levels of Aβ1-40 in monkeys treated with ST 101, relative to control monkeys.

BACE = experiment: Western blot of BACE in cynomolgus monkey hippocampus; details: male cynomolgus monkeys, 9 months oral, 100 mg/kg/day
Experimental: as §1

## O=C1N=C2C=CC=CN2C12Cc1ccccc1C2 [ST101, spiro(imidazo[1,2-a]pyridin-2(3H)-one-3,2′-indan)]
tau; H7 antibody
  accumulated tau and degradation products: disappearance
tau; R-p-tau antibody
  phosphorylated tau degradation product: appearance of a new phosphorylated tau degradation product
BACE1
  BACE protein level: profound reduction
  Pro-BACE protein level: not significantly affected
APP; 10 mg/kg/day
  C83 APP fragment: no differences
  C99 APP fragment: no differences
APP; 10 mg/kg/day, antibody CT20
  17-kDa APP fragment: not detected
APP; 30 mg/kg/day
  C83 APP fragment: reductions
  C99 APP fragment: reductions
  ~55-kDa APP fragment: Reductions
APP; 30 mg/kg/day, antibody CT20
  17-kDa APP fragment: not detected
APP; 100 mg/kg/day
  C83 APP fragment: reductions
  C99 APP fragment: reductions
  ~55-kDa APP fragment: Reductions
APP; 100 mg/kg/day, antibody CT20, long exposures
  17-kDa APP fragment: presence
Aβ1-40
  Aβ1-40 levels in brain: reduction of Aβ1-40 in animals treated with ST101 that did not reach statistical significance
BACE
  BACE level: no differences
